Results: paper PMC6155272, “Chroman-4-One Derivatives Targeting Pteridine Reductase 1 and Showing Anti-Parasitic Activity” (Molecules : A Journal of Synthetic Chemistry and Natural …, 2017)

What was measured:
[1] = biological target: T1, Trypanosoma brucei pteridine reductase 1 (TbPTR1) (Trypanosoma brucei brucei, UniProt O76290); experiment: TbPTR1 enzyme reporter assay (cytochrome-c reduction, 550 nm); format: biochemical; conditions: for IC50: compounds 1–3, SD agreed to ±10%; for inhibition at 50 µM: read-out: % Inhibition TbPTR1 (50 μM), 50 μM
T1 construct: made in house
T1 sequence (O76290 1-268): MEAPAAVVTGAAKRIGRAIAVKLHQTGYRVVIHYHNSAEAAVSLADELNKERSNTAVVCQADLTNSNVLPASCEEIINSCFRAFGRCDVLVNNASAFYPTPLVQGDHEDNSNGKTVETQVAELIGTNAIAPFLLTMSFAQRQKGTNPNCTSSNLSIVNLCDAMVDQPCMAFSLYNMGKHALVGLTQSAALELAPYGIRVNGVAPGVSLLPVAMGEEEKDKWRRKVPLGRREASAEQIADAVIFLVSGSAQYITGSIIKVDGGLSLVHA
Description: TbPTR1 and LmPTR1 were purified as reported in literature. The enzyme kinetic profile of each selected protein was characterized by a spectrophotometric assay. The experimental assay consists of enzyme kinetic reaction monitoring at 340 nm for a total time of 180 s. The enzyme kinetic activity was measured at steady-state concentration of 7,8-dihydro-L-biopterin (H2B) and NADPH substrates equal to 50 and 120 µM and varying the enzyme concentration in the 0.001–0.006 µM and 0.005–0.010–0.015–0.020–0.025–0.030 µM range for Lm- and TbPTR1, respectively. The resulting kcat values were equal to 0.68 (s^−1) and 7.2 (s^−1) for Tb- and LmPTR1, respectively. For both TbPTR1 and LmPTR1, the Km value evaluation assay for H2B- and NADPH-substrates was performed in the 0.3-0.6–0.9–1.2–2.4–4.8 µM and 3.0–6.0–12.0–40.0–90.0–190.0 µM concentrations range, respectively.
Compounds 1A–3A were evaluated as reported in our previous paper. The novel synthesized compounds 1–3 were tested towards TbPTR1 and LmPTR1 using the in vitro TbPTR1/LmPTR1 enzyme reporter assay. The experimental procedure consists of monitoring the non-enzymatic reduction reaction of cytochrome-c at 550 nm, related to the reduction reaction of H2B to tetrahydrobiopterin (H4B) by using NADPH as the cofactor. TbPTR1 and LmPTR1 enzyme activity was assayed in a buffer containing 20 mM sodium citrate (pH 6.0) in a final experimental volume equal to 600 µL. The final reaction mixture contained different substrates added in the following order: TbPTR1/LmPTR1 (0.018 µM/0.002 µM) in 20 mM Tris-HCl, glycerol 10% (v/v), pH 7.5; H2B at a final concentration equal to 0.3 µM; cytochrome-c (80 µM); Milli-Q water to a final volume of 600 µL and NADPH to a final concentration of 500 µM. Before the addition of NADPH, the reaction mixture was incubated for 10 min at 30 °C and 80 RPM. To allow the starting of the reaction, NADPH was added and the enzyme reaction was detected for a total time of 10 min at 30 °C, 550 nm. The inhibition profile characterization of compounds 1–3 was performed with a DU-640 spectrophotometer (Beckman Coulter, Brea, CA, USA). Each compound was assayed in duplicate against Tb/LmPTR1 target enzymes in the 0–10–25–50–80–150 µM concentrations range. At the different concentration values, the compounds were added to the reaction mixture (enzyme, H2B, cytochrome-c in 20 mM sodium citrate buffer and Milli-Q water) and incubated for 10 min at 30 °C, 80 RPM. The reaction was initiated by the addition of NADPH (500 µM) and monitored for 10 min at 30 °C, 550 nm. The absorbance values were processed by software analysis and transformed into the corresponding slopes. The percentages of inhibition and the IC50 values were determined.

CYP2D6 = biological target: T2, CYP2D6 (Homo sapiens, UniProt P10635); experiment: Cytochrome P450 2D6 assay (P450-Glo); format: in vitro ADME; conditions: for inhibition at 10 µM: human
T2 construct: purchased Promega; host or cells: baculovirus-infected insect cells
T2 sequence (P10635 whole entry): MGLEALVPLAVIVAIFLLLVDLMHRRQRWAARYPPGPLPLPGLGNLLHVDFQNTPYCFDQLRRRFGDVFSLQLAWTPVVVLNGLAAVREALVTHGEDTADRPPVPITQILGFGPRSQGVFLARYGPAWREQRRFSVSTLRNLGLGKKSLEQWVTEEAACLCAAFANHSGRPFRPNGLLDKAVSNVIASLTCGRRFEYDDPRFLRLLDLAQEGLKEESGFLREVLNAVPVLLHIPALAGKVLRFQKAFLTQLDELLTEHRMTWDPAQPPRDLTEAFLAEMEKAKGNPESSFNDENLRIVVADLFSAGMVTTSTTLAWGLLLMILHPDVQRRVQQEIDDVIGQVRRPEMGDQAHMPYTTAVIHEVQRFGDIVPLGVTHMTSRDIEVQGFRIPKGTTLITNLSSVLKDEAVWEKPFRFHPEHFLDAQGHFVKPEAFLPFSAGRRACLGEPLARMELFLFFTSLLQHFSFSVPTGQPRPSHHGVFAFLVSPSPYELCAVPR
Excerpt: (§1) These assays made use of the PromegaP450-Glo™ (Madison, AL, USA) assay platform. Each CYP450 assay includes microsomal preparations of cytochromes from baculovirus-infected insect cells.

[2] = Cytotoxicity against THP-1 macrophages (MTT); format: cell-based; conditions: human, THP-1-derived macrophages; THP-1 macrophage-like cells; NOAEL = no observed adverse effect level; read-out: CC50 ± SD or NOAEL
Description: The effect of compounds 1–3 on THP-1-derived macrophages was assessed by the colorimetric (MTT) assay (3-(4,5-dimethylthiazol-2-yl)-2,5-diphenyl tetrazolium bromide).

[3] = system: T. brucei bloodstream forms; experiment: Activity against T. brucei bloodstream forms (resazurin-based assay); format: cell-based, Trypanosoma brucei; conditions: for EC50 / inhibition at 10 µM: bloodstream form; for EC50: dose response; for inhibition at 10 µM: read-out: % inh. T. brucei (10 μM); for selectivity index (SI): ratio between CC50 toward THP-1 and EC50 toward T. brucei
Description: The efficacy of compounds against T. brucei bloodstream forms was evaluated using a modified resazurin-based assay previously described in literature.

CYP1A2 = biological target: T3, CYP1A2 (Homo sapiens, UniProt P05177); experiment: Cytochrome P450 1A2 assay (P450-Glo); format: in vitro ADME; conditions: for inhibition at 10 µM: human
T3 construct: purchased Promega; host or cells: baculovirus-infected insect cells
T3 sequence (P05177 1-516): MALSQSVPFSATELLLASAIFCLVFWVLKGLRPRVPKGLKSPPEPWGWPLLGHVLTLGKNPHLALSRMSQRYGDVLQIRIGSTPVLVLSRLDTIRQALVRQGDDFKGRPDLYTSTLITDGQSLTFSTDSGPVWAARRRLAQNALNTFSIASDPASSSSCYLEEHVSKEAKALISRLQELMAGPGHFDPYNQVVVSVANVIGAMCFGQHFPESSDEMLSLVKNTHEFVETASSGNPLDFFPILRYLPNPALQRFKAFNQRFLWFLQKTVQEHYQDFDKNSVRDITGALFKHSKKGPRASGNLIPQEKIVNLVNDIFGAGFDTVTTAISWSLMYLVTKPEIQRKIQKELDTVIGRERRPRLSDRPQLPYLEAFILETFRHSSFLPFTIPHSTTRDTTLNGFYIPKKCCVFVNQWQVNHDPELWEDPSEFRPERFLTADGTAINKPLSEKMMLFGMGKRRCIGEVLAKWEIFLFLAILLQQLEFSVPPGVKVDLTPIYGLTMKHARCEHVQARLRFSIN
Excerpt: as §1

[4] = system: 786-O (renal carcinoma) cell line; experiment: Mitochondrial toxicity (MitoTracker Red CMXRos uptake, high content imaging); format: cell-based; parameters: key to % Mitochondrial toxicity: NI: no inhibition; conditions: for % Mitochondrial toxicity: 10 µM, 100% = mitotoxic, 0% = not mitotoxic; for IC50: Homo sapiens, 786-0, read-out: IC50 Mitochondria
Description: This made use of MitoTracker® Red chloromethyl-X-rosamine (CMXRos) uptake and High Content Imaging to monitor compound mediated mitochondrial toxicity in the 786-O (renal carcinoma) cell line. Cells were maintained using Roswell Park Memorial Institute-1640 (RPMI-1640) medium from Capricorn Scientific GmbH, Ebsdorfergrund, Germany containing 2 mM glutamine, FBS (10% v/v), streptomycin (100 μg/mL) and penicillin G (100 U/mL).

CYP2C9 = biological target: T4, CYP2C9 (Homo sapiens, UniProt P11712); experiment: Cytochrome P450 2C9 assay (P450-Glo); format: in vitro ADME; conditions: for inhibition at 10 µM: human
T4 construct: purchased Promega; host or cells: baculovirus-infected insect cells
T4 sequence (P11712 whole entry): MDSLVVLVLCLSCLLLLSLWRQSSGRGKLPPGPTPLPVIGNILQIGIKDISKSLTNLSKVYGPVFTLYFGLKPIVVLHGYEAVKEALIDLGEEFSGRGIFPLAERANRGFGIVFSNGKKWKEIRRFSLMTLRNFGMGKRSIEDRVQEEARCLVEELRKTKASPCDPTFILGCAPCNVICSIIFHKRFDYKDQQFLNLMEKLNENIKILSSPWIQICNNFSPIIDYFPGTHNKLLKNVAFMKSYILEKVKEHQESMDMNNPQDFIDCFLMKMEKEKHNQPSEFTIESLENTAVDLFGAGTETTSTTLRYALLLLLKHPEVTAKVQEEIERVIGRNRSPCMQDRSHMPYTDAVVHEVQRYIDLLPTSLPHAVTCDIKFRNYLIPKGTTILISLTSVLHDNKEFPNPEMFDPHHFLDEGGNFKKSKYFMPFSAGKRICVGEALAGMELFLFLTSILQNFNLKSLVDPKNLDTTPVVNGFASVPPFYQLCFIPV
Excerpt: as §1

Compound	% Inhibition TbPTR1 (50 μM) ([1]; 50 μM, compounds 1–3 and control) [%]	IC50 [1] [µM]	inhibition at 50 µM ([1]; compounds 1–3 and control) [%]	IC50 (CYP2D6) [µM]	inhibition at 10 µM (CYP2D6) [%]	CC50 [2] [µM]	EC50 ([3]; Trypanosoma brucei) [µM]	inhibition at 10 µM ([3]; Trypanosoma brucei) [%]	EC50 [3] [µM]	selectivity index (SI) [3]	IC50 (CYP1A2) [µM]	inhibition at 10 µM (CYP1A2) [%]	% Mitochondrial toxicity [4]	IC50 [4] [µM]	IC50 (CYP2C9) [µM]	inhibition at 10 µM (CYP2C9) [%]
O=C1CC(c2cccc(O)c2)Oc2ccc(O)cc21 (stereo not drawn) [Compound 1]	81	31	81.3	85	< 15	> 100	12.6 ± 1.69	44	12.6 ± 1.7	greater than 7	29	3	6%	> 100	72	< 15
O=C1CC(c2ccc(O)cc2)Oc2ccc(O)cc21 (stereo not drawn) [Compound 2]	–	133	17.7	94	< 15	> 100	13 ± 1.82	49	13 ± 1.8	higher than 7	59	< 15	NI	> 100	> 100	< 15
O=C1CC(c2ccc(O)c(O)c2)Oc2ccc(O)cc21 (stereo not drawn) [Compound 3]	–	82	34.6	> 100	< 15	> 100	34.8 ± 1.1	14	34.8 ± 1.1	–	62	< 15	NI	> 100	4	< 15
